Reference: ChEMBL document CHEMBL1139763, “Pyrrolidines as potent functional agonists of the human melanocortin-4 receptor” (Bioorg Med Chem Lett, 2007)

Legend:
Melanocortin receptor 4 [1] = target: T1, Melanocortin receptor 4 (Homo sapiens, UniProt P32245); test: Displacement of [125I]NDP-MSH from human MC4R expressed in HEK293 cells; assay type: cell-based
Melanocortin receptor 4 [2] = target: T1, Melanocortin receptor 4; test: Intrinsic activity at human MC4R expressed in HEK293 cells assessed as cAMP accumulation relative to alphaMSH; assay type: functional, cell-based
Melanocortin receptor 4 [3] = target: T1, Melanocortin receptor 4; test: Agonist activity at human MC4R expressed in HEK293 cells assessed as cAMP accumulation; assay type: functional, cell-based

T1 sequence (P32245 whole entry): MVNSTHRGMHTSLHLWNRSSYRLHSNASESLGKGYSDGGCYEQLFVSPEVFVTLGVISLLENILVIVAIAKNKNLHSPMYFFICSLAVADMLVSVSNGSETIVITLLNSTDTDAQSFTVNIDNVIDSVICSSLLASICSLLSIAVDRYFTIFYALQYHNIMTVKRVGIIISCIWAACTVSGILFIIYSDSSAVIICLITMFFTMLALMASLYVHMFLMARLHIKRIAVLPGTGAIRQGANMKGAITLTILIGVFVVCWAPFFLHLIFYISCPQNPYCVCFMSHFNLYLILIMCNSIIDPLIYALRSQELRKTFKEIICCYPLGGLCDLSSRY

Compound	Ki (Melanocortin receptor 4 [1])	Intrinsic activity (Melanocortin receptor 4 [2])	EC50 (Melanocortin receptor 4 [3])
CC(C)N1C[C@@H](C(=O)N2CCN(c3ccccc3CNS(C)(=O)=O)CC2)[C@H](c2ccc(Cl)cc2)C1	1700 nM	–	–
CNCCNCc1ccccc1N1CCN(C(=O)[C@@H]2CN(C(C)C)C[C@H]2c2ccc(Cl)cc2)CC1	270 nM	–	–
CC(C)C[C@H](NC(=O)[C@H](C)N)c1cc(C(F)(F)F)ccc1N1CCN(C(=O)[C@@H]2CN(C(C)C)C[C@H]2c2ccc(Cl)cc2)CC1	47 nM	104%	210 nM
CC(C)C[C@H](NC(=O)CN)c1cc(C(F)(F)F)ccc1N1CCN(C(=O)[C@@H]2CN(C(C)C)C[C@H]2c2ccc(Cl)cc2)CC1	8.9 nM	115%	44 nM
CC(C)N1C[C@@H](C(=O)N2CCN(c3ccccc3CNC3CNC3)CC2)[C@H](c2ccc(Cl)cc2)C1	520 nM	–	–
CC(C)N1C[C@@H](C(=O)N2CCN(c3ccccc3C#N)CC2)[C@H](c2ccc(Cl)cc2)C1	4800 nM	–	–
CC(C)N1C[C@@H](C(=O)N2CCN(c3ccccc3CN3CCN(C)CC3)CC2)[C@H](c2ccc(Cl)cc2)C1	840 nM	–	–
CNCC(=O)N[C@@H](CC(C)C)c1cc(C(F)(F)F)ccc1N1CCN(C(=O)[C@@H]2CN(C(C)C)C[C@H]2c2ccc(Cl)cc2)CC1	7.7 nM	63%	67 nM
CNCC(=O)N[C@H](c1cccc(F)c1N1CCN(C(=O)[C@@H]2CN(C(C)C)C[C@H]2c2ccc(Cl)cc2)CC1)C(C)C	11 nM	114%	16 nM
CC(C)N1C[C@@H](C(=O)N2CCN(c3ccccc3Cn3ccnc3)CC2)[C@H](c2ccc(Cl)cc2)C1	220 nM	52%	320 nM
CC(C)N1C[C@@H](C(=O)N2CCN(c3ccccc3CNCCN)CC2)[C@H](c2ccc(Cl)cc2)C1	230 nM	–	–
CC(C)N1C[C@@H](C(=O)N2CCN(c3ccccc3CN3CCCC3)CC2)[C@H](c2ccc(Cl)cc2)C1	550 nM	–	–
Cc1ccc(N2CCN(C(=O)[C@@H]3CN(C(C)C)C[C@H]3c3ccc(Cl)cc3)CC2)c([C@@H](NC(=O)CN(C)C)C(C)C)c1	7.1 nM	100%	170 nM
CC(C)C[C@H](NS(C)(=O)=O)c1cc(C(F)(F)F)ccc1N1CCN(C(=O)[C@@H]2CN(C(C)C)C[C@H]2c2ccc(Cl)cc2)CC1	87 nM	96%	450 nM
Cc1cncn1Cc1ccccc1N1CCN(C(=O)[C@@H]2CN(C(C)C)C[C@H]2c2ccc(Cl)cc2)CC1	250 nM	–	–
CC(C)N1C[C@@H](C(=O)N2CCN(c3ccccc3CN(C)C)CC2)[C@H](c2ccc(Cl)cc2)C1	1200 nM	–	–
CC(C)N1C[C@@H](C(=O)N2CCN(c3ccccc3CNc3ccccc3N)CC2)[C@H](c2ccc(Cl)cc2)C1	1400 nM	–	–

Compound	Ki (Melanocortin receptor 4 [1])	Intrinsic activity (Melanocortin receptor 4 [2])	EC50 (Melanocortin receptor 4 [3])
Cc1ccc(N2CCN(C(=O)[C@@H]3CN(C(C)C)C[C@H]3c3ccc(Cl)cc3)CC2)c([C@@H](NC(=O)CCN(C)C)C(C)C)c1	4.7 nM	102%	16 nM
CC(C)N1C[C@@H](C(=O)N2CCN(c3ccccc3Cn3cnnc3)CC2)[C@H](c2ccc(Cl)cc2)C1	580 nM	–	–
CC(C)CNCc1ccccc1N1CCN(C(=O)[C@@H]2CN(C(C)C)C[C@H]2c2ccc(Cl)cc2)CC1	510 nM	–	–
CC(C)CN(Cc1ccccc1N1CCN(C(=O)[C@@H]2CN(C(C)C)C[C@H]2c2ccc(Cl)cc2)CC1)C(=O)CCN	450 nM	–	–
CC(C)CN(Cc1ccccc1N1CCN(C(=O)[C@@H]2CN(C(C)C)C[C@H]2c2ccc(Cl)cc2)CC1)CC(C)C	1100 nM	–	–
CC(C)[C@H](NC(=O)CCN)c1cccc(F)c1N1CCN(C(=O)[C@@H]2CN(C(C)C)C[C@H]2c2ccc(Cl)cc2)CC1	13 nM	100%	6.9 nM
CC(C)N1C[C@@H](C(=O)N2CCN(c3ccccc3Cn3ccnn3)CC2)[C@H](c2ccc(Cl)cc2)C1	420 nM	–	–
CC(C)C[C@H](NC(=O)CCN)c1cc(C(F)(F)F)ccc1N1CCN(C(=O)[C@@H]2CN(C(C)C)C[C@H]2c2ccc(Cl)cc2)CC1	8.7 nM	95%	4.6 nM
CC(C)N1C[C@@H](C(=O)N2CCN(c3ccccc3CN3CCCCC3)CC2)[C@H](c2ccc(Cl)cc2)C1	950 nM	–	–
CC(C)[C@H](N)c1cccc(F)c1N1CCN(C(=O)[C@@H]2CN(C(C)C)C[C@H]2c2ccc(Cl)cc2)CC1	21 nM	68%	270 nM
CC(C)N1C[C@@H](C(=O)N2CCN(c3ccccc3CN(C)C3CNC3)CC2)[C@H](c2ccc(Cl)cc2)C1	240 nM	–	–
CC(C)N1C[C@@H](C(=O)N2CCN(c3ccccc3C=O)CC2)[C@H](c2ccc(Cl)cc2)C1	1150 nM	–	–
COCCN(C)Cc1ccccc1N1CCN(C(=O)[C@@H]2CN(C(C)C)C[C@H]2c2ccc(Cl)cc2)CC1	320 nM	–	–
CC(C)N1C[C@@H](C(=O)N2CCN(c3ccccc3Cn3cncn3)CC2)[C@H](c2ccc(Cl)cc2)C1	320 nM	–	–
Cc1nccn1Cc1ccccc1N1CCN(C(=O)[C@@H]2CN(C(C)C)C[C@H]2c2ccc(Cl)cc2)CC1	280 nM	–	–
CC(C)N1C[C@@H](C(=O)N2CCN(c3ccccc3Cn3cccn3)CC2)[C@H](c2ccc(Cl)cc2)C1	490 nM	–	–

The remaining molecules from weak to strong by Ki (Melanocortin receptor 4 [1]), led by results:

Ki (Melanocortin receptor 4 [1])	Intrinsic activity (Melanocortin receptor 4 [2])	EC50 (Melanocortin receptor 4 [3])	Compound
1600 nM	–	–	CC(C)N1C[C@@H](C(=O)N2CCN(c3ccccc3CNc3cccnc3)CC2)[C@H](c2ccc(Cl)cc2)C1
1200 nM	–	–	CCN(CC)Cc1ccccc1N1CCN(C(=O)[C@@H]2CN(C(C)C)C[C@H]2c2ccc(Cl)cc2)CC1
1100 nM	–	–	CC(C)N1C[C@@H](C(=O)N2CCN(c3ccccc3CN)CC2)[C@H](c2ccc(Cl)cc2)C1
520 nM	–	–	COc1ccccc1N1CCN(C(=O)[C@@H]2CN(C(C)C)C[C@H]2c2ccc(Cl)cc2)CC1
360 nM	–	–	CC(C)N1C[C@@H](C(=O)N2CCN(c3ccccc3CN3CCNCC3)CC2)[C@H](c2ccc(Cl)cc2)C1
190 nM	–	–	CC(C)N1C[C@@H](C(=O)N2CCN(c3ccccc3CNC3CCNCC3)CC2)[C@H](c2ccc(Cl)cc2)C1
92 nM	40%	390 nM	CC(C)N1C[C@@H](C(=O)N2CCN(c3ccccc3CN3CCC(N)CC3)CC2)[C@H](c2ccc(Cl)cc2)C1
47 nM	35%	–	CC(=O)N[C@H](c1cc(C)ccc1N1CCN(C(=O)[C@@H]2CN(C(C)C)C[C@H]2c2ccc(Cl)cc2)CC1)C(C)C
26 nM	94%	1100 nM	CC(C)C[C@H](N)c1cc(C(F)(F)F)ccc1N1CCN(C(=O)[C@@H]2CN(C(C)C)C[C@H]2c2ccc(Cl)cc2)CC1
18 nM	80%	6.6 nM	CC(C)C[C@H](NC(=O)C1CNC1)c1cc(C(F)(F)F)ccc1N1CCN(C(=O)[C@@H]2CN(C(C)C)C[C@H]2c2ccc(Cl)cc2)CC1
17.3 nM	99%	52 nM	CC(C)C[C@H](NC(=O)CN(C)C)c1cc(C(F)(F)F)ccc1N1CCN(C(=O)[C@@H]2CN(C(C)C)C[C@H]2c2ccc(Cl)cc2)CC1
13 nM	44%	–	Cc1ccc(N2CCN(C(=O)[C@@H]3CN(C(C)C)C[C@H]3c3ccc(Cl)cc3)CC2)c([C@H](C(C)C)N(C)C)c1
12 nM	99%	105 nM	Cc1ccc(N2CCN(C(=O)[C@@H]3CN(C(C)C)C[C@H]3c3ccc(Cl)cc3)CC2)c([C@@H](N)C(C)C)c1
10 nM	76%	91 nM	CC(C)C[C@H](NC(=O)CCN(C)C)c1cc(C(F)(F)F)ccc1N1CCN(C(=O)[C@@H]2CN(C(C)C)C[C@H]2c2ccc(Cl)cc2)CC1
4.9 nM	103%	31 nM	CC(C)C[C@H](NC(=O)[C@@H](C)N)c1cc(C(F)(F)F)ccc1N1CCN(C(=O)[C@@H]2CN(C(C)C)C[C@H]2c2ccc(Cl)cc2)CC1
4.4 nM	70%	9 nM	CC(C)[C@H](NC(=O)[C@@H](C)N)c1cccc(F)c1N1CCN(C(=O)[C@@H]2CN(C(C)C)C[C@H]2c2ccc(Cl)cc2)CC1
